Patent publication US8454857B2, “Polymerizable liquid crystal compounds, polymerizable liquid crystal compositions, liquid crystalline polymers and optically anisotropic materials” (Zeon Corporation, priority 2008, dated 2013)

Tests used:
Format in all cases: physicochemical
[1] = Solubility in cyclopentanone at 60° C., 40 wt % solution; set-up: key: a case where the compound was dissolved in cyclopentanone is indicated by “Good”; a case where the compound was not dissolved in cyclopentanone is indicated by “Bad”; settings: compound concentration 40 wt %
Procedure: The solubility of the compound at 60° C. was evaluated when preparing a solution having a compound concentration of 40 wt %. In Table 1, a case where the compound was dissolved in cyclopentanone is indicated by “Good”, and a case where the compound was not dissolved in cyclopentanone is indicated by “Bad”.

[2] = Measurement of phase transition temperature (polarizing optical microscope, heated 30° C. to 300° C. and cooled)
Procedure: 10 mg of the polymerizable liquid crystal compound (the polymerizable liquid crystal compounds 1 and 2 obtained in Examples 1 and 2, and a polymerizable liquid crystal compound shown by the following formula (3) (“LC242” manufactured by BASF) (Comparative Example 1) (hereinafter referred to as “polymerizable liquid crystal compound 3”)) was weighed, and placed between two glass substrates provided with a rubbed polyimide alignment film.
The substrates were heated from 30° C. to 300° C. on a hot plate, and then cooled to 30° C. A change in structure during a change in temperature was observed using a polarizing optical microscope (“ECLIPSE LV100POL” manufactured by Nikon Corporation) to determine the phase transition temperature.
In Table 1, “C” indicates “Crystal”, “N” indicates “Nematic”, and “I” indicates “Isotropic”.

[3] = Mutual solubility at 23° C. by naked eye observation when forming the cured film; set-up: key: A case where turbidity was not observed was evaluated as “Good”; a case where turbidity was observed was evaluated as “Bad”; settings: naked eye observation of turbidity
Procedure: 100 parts of the polymerizable liquid crystal compound (1 to 3) was dissolved in 153 parts of cyclopentanone. After the addition of 3.3 parts of a photoinitiator (“Irgacure 379” manufactured by Ciba Specialty Chemicals Co., Ltd.), 6 parts of a polymerizable chiral compound (compound shown by the formula (X)), and 11.6 parts of a surfactant (“KH-40” manufactured by AGC Seimi Chemical Co., Ltd.; 1 wt % cyclopentanone solution), the components were homogenously dissolved to prepare a polymerizable liquid crystal composition solution.
When forming the cured film of the compound, the mutual solubility of the compound at 23° C. was evaluated by naked eye observation. A case where turbidity was not observed was evaluated as “Good”, and a case where turbidity was observed was evaluated as “Bad”.

[4] = Measurement of optical anisotropy (value Δn) of cured polymer film; settings: cured polymer film 4 μm, 546 nm, Δn=Re/d
Procedure: 100 parts of the polymerizable liquid crystal compound (1 to 3) was dissolved in 233 parts of cyclopentanone. 2.7 parts of a photoinitiator (“Irgacure 907” manufactured by Ciba Specialty Chemicals Co., Ltd.) was homogenously dissolved in the solution. The resulting solution was applied to a glass substrate provided with a rubbed polyimide alignment film using a bar coater (“SA-203” manufactured by Tester Sangyo Co., Ltd., Rod No. 4, shaft diameter: 12.7 mm). After drying the resulting film at 100° C. for 5 minutes on a hot plate, ultraviolet rays (1000 mJ/cm^2) were applied to the film from a mercury lamp to obtain a cured polymer film having a thickness of 4 μm.
The extinction position (θ) of the cured film was measured using an optical microscope (“ECLIPSE E600POL (transmission/reflection type)” manufactured by Nikon Corporation, equipped with a sensitive tint plate, a λ/4 wave plate, a Sénarmont compensator, and a GIF filter (546 nm). The retardation (Re) was calculated by “Re=λ(546 nm)×θ/180”. The value Δn was calculated by “Δn=Re/d” (where, d is the thickness of the liquid crystal layer). The calculation results are shown in Table 1.

- Solubility [1]: Good
- Liquid crystallinity temperature range ([2]; heated from 30° C. to 300° C., then cooled to 30° C., between glass substrates with rubbed polyimide alignment film): 63 °C
- Mutual solubility [3]: Good
- Δn [4]: 0.142
SMILES: C=CC(=O)OCCCCOC(=O)Oc1ccc(C(=O)Oc2ccc(OC(=O)c3ccc(OC(=O)OCCCCOC(=O)C=C)cc3)c(C)c2)cc1 [Polymerizable liquid crystal compound 3]
- liquid crystallinity temperature range (in words) ([2]; summary of Table 1): liquid crystallinity within a narrow temperature range
